According to PubChem BioAssay (NCI):
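The concentration for 50% growth inhibition is given as GI50. TGI: total growth inhibition.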

Legend:
Assay in all cases: NCI tumour cell line growth inhibition, 384-well format
A498 renal = system: A498 renal
A549 NSCLC = system: A549 NSCLC
ACHN renal = system: ACHN renal
BT-549 breast = system: BT-549 breast
CAKI-1 renal = system: CAKI-1 renal
COLO 205 colon = system: COLO 205 colon
DU-145 prostate = system: DU-145 prostate
EKVX NSCLC = system: EKVX NSCLC
HCC-2998 colon = system: HCC-2998 colon
HCT-116 colon = system: HCT-116 colon
HCT-15 colon = system: HCT-15 colon
HL-60(TB) leukemia = system: HL-60(TB) leukemia
HOP-62 NSCLC = system: HOP-62 NSCLC
HOP-92 NSCLC = system: HOP-92 NSCLC
HS 578T breast = system: HS 578T breast
HT29 colon = system: HT29 colon
IGROV1 ovarian = system: IGROV1 ovarian
KM12 colon = system: KM12 colon
LOX IMVI melanoma = system: LOX IMVI melanoma
M14 melanoma = system: M14 melanoma
MALME-3M melanoma = system: MALME-3M melanoma
MCF7 breast = system: MCF7 breast
MDA-MB-231 breast = system: MDA-MB-231 breast
MDA-MB-435 melanoma = system: MDA-MB-435 melanoma
MDA-MB-468 breast = system: MDA-MB-468 breast
MOLT-4 leukemia = system: MOLT-4 leukemia
NCI-H226 lung = system: NCI-H226 lung

Question: Which GI50 (A498 renal) does the source give for Clc1ccc(N2CCC(N3CCCC3)CC2)cc1-c1nc2ccccc2[nH]1 here?
Answer: The GI50 was 14.4 µM.

Question: And the TGI (A498 renal)?
Answer: Its TGI is 27.6 µM.

Question: And the GI50 (A549 NSCLC)?
Answer: The GI50 was 17.2 µM.

Question: And the TGI (A549 NSCLC)?
Answer: The TGI was 32.3 µM.

Question: And the GI50 (ACHN renal)?
Answer: Its GI50 is 16.6 µM.

Question: What about the TGI (ACHN renal) of the same compound?
Answer: Its TGI is 30.8 µM.

Question: And the GI50 (BT-549 breast)?
Answer: The GI50 was 8.67 µM.

Question: And the TGI (BT-549 breast)?
Answer: Its TGI is 20.9 µM.

Question: And the GI50 (CAKI-1 renal)?
Answer: Its GI50 is 16.9 µM.

Question: What about the TGI (CAKI-1 renal) of the same compound?
Answer: Its TGI is 33.4 µM.

Question: What about the GI50 (COLO 205 colon) of the same compound?
Answer: Its GI50 is 14.3 µM.

Question: And the TGI (COLO 205 colon)?
Answer: Its TGI is 27.6 µM.

Question: What about the GI50 (DU-145 prostate) of the same compound?
Answer: The GI50 was 15.3 µM.

Question: And the TGI (DU-145 prostate)?
Answer: The TGI was 32.5 µM.

Question: And the GI50 (EKVX NSCLC)?
Answer: Its GI50 is 14.2 µM.

Question: What about the TGI (EKVX NSCLC) of the same compound?
Answer: Its TGI is 28.1 µM.

Question: What about the GI50 (HCC-2998 colon) of the same compound?
Answer: Its GI50 is 12.5 µM.

Question: And the TGI (HCC-2998 colon)?
Answer: Its TGI is 25.3 µM.

Question: What about the GI50 (HCT-116 colon) of the same compound?
Answer: Its GI50 is 11.7 µM.

Question: And the TGI (HCT-116 colon)?
Answer: The TGI was 24.7 µM.

Question: And the GI50 (HCT-15 colon)?
Answer: Its GI50 is 3.84 µM.

Question: And the TGI (HCT-15 colon)?
Answer: The TGI was 14.1 µM.

Question: And the GI50 (HL-60(TB) leukemia)?
Answer: The GI50 was 12.3 µM.

Question: What about the TGI (HL-60(TB) leukemia) of the same compound?
Answer: The TGI was 25 µM.

Question: And the GI50 (HOP-62 NSCLC)?
Answer: The GI50 was 16.1 µM.

Question: And the TGI (HOP-62 NSCLC)?
Answer: The TGI was 29.8 µM.

Question: What about the GI50 (HOP-92 NSCLC) of the same compound?
Answer: The GI50 was 18.4 µM.

Question: What about the TGI (HOP-92 NSCLC) of the same compound?
Answer: The TGI was 32.8 µM.

Question: And the GI50 (HS 578T breast)?
Answer: The GI50 was 14.8 µM.

Question: And the TGI (HS 578T breast)?
Answer: The TGI was 28.1 µM.

Question: And the GI50 (HT29 colon)?
Answer: The GI50 was 10.9 µM.

Question: And the TGI (HT29 colon)?
Answer: Its TGI is 23.6 µM.

Question: What about the GI50 (IGROV1 ovarian) of the same compound?
Answer: Its GI50 is 15.5 µM.

Question: And the TGI (IGROV1 ovarian)?
Answer: Its TGI is 29.5 µM.

Question: What about the GI50 (KM12 colon) of the same compound?
Answer: Its GI50 is 14.8 µM.

Question: What about the TGI (KM12 colon) of the same compound?
Answer: The TGI was 29.1 µM.

Question: What about the GI50 (LOX IMVI melanoma) of the same compound?
Answer: Its GI50 is 16.5 µM.

Question: What about the TGI (LOX IMVI melanoma) of the same compound?
Answer: The TGI was 30.2 µM.

Question: And the GI50 (M14 melanoma)?
Answer: Its GI50 is 18 µM.

Question: And the TGI (M14 melanoma)?
Answer: The TGI was 32 µM.

Question: And the GI50 (MALME-3M melanoma)?
Answer: The GI50 was 13 µM.

Question: What about the TGI (MALME-3M melanoma) of the same compound?
Answer: Its TGI is 25.8 µM.

Question: What about the GI50 (MCF7 breast) of the same compound?
Answer: Its GI50 is 12.1 µM.

Question: And the TGI (MCF7 breast)?
Answer: The TGI was 25.4 µM.

Question: What about the GI50 (MDA-MB-231 breast) of the same compound?
Answer: The GI50 was 17 µM.

Question: And the TGI (MDA-MB-231 breast)?
Answer: The TGI was 31.2 µM.

Question: What about the GI50 (MDA-MB-435 melanoma) of the same compound?
Answer: Its GI50 is 17.1 µM.

Question: What about the TGI (MDA-MB-435 melanoma) of the same compound?
Answer: Its TGI is 30.9 µM.

Question: What about the GI50 (MDA-MB-468 breast) of the same compound?
Answer: Its GI50 is 14.1 µM.

Question: What about the TGI (MDA-MB-468 breast) of the same compound?
Answer: The TGI was 27.3 µM.

Question: What about the GI50 (MOLT-4 leukemia) of the same compound?
Answer: Its GI50 is 16.5 µM.

Question: What about the TGI (MOLT-4 leukemia) of the same compound?
Answer: The TGI was 30.3 µM.

Question: What about the GI50 (NCI-H226 lung) of the same compound?
Answer: Its GI50 is 15.2 µM.

Question: And the TGI (NCI-H226 lung)?
Answer: The TGI was 28.6 µM.
